Data reported in PubChem BioAssay (NCI).
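Compound exposure: 48 hours, 5 concentrations, 96-well plates. The concentration for full growth arrest is given as TGI.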

Legend:
Assay in all cases: inhibition of tumour cell growth, NCI panel, 48 h
CCRF-CEM leukemia = system: CCRF-CEM leukemia
KM20L2 colon = system: KM20L2 colon
DMS 273 small cell lung = system: DMS 273 small cell lung
DLD-1 colon = system: DLD-1 colon
DMS 114 small cell lung = system: DMS 114 small cell lung
LXFL 529 NSCLC = system: LXFL 529 NSCLC
SNB-78 CNS = system: SNB-78 CNS
RXF-631 renal = system: RXF-631 renal
M19-MEL melanoma = system: M19-MEL melanoma
HOP-18 NSCLC = system: HOP-18 NSCLC
XF 498 CNS = system: XF 498 CNS

SMILES: Cc1cn(C2CC(N=[N+]=[N-])C(COP(=O)(O)OCC3OC(n4cc(F)c(=O)[nH]c4=O)CC3O)O2)c(=O)[nH]c1=O (centres undefined)
- TGI (CCRF-CEM leukemia): > 100 µM

SMILES: Cc1ccc(S(=O)(=O)N/N=C2/CCC3(O)CC2(C)CCC2[C@H]3CC2(C)C)cc1 (some centres undefined)
- TGI (CCRF-CEM leukemia): 86.1 µM

SMILES: O=[N+]([O-])c1ccc(-c2nn3c(C45CC6CC(CC(C6)C4)C5)nnc3s2)c(Cl)c1
- TGI (CCRF-CEM leukemia): > 100 µM

SMILES: Cc1cc(NS(=O)(=O)c2ccc(N=[N+]([O-])c3ccc(S(=O)(=O)Nc4cc(C)on4)cc3)cc2)no1
- TGI (CCRF-CEM leukemia): > 100 µM

SMILES: CC(=O)N1C(Nc2nccs2)CCN1c1ccccc1 (centres undefined)
- TGI (CCRF-CEM leukemia): > 10 µM

SMILES: CCOC(=O)CCC(NC(=O)c1ccc(NC(OC)c2nc3cc(C(F)(F)F)ccc3nc2-c2ccccc2)cc1)C(=O)OCC (centres undefined)
- TGI (CCRF-CEM leukemia): > 21.7 µM
- TGI (KM20L2 colon): 27.2 µM
- TGI (DMS 273 small cell lung): 21 µM
- TGI (DLD-1 colon): 24.1 µM
- TGI (DMS 114 small cell lung): 30.7 µM
- TGI (LXFL 529 NSCLC): 20.3 µM
- TGI (SNB-78 CNS): 37.3 µM
- TGI (RXF-631 renal): 29.2 µM
- TGI (M19-MEL melanoma): 29.2 µM
- TGI (HOP-18 NSCLC): 44.5 µM

SMILES: O=C1NCN(c2ccccc2)C12CCN(CC1COc3ccccc3O1)CC2 (centres undefined)
- TGI (CCRF-CEM leukemia): > 100 µM

SMILES: COc1ccc(-c2nc(Nc3ccccc3)sc2Cc2sc(Nc3ccccc3)nc2-c2ccc(OC)cc2)cc1
- TGI (CCRF-CEM leukemia): > 100 µM

SMILES: CC(C)(O)c1cc2c(cc1C(C)(C)O)-c1ccccc1-2
- TGI (CCRF-CEM leukemia): > 100 µM

SMILES: CCOC(=O)C1=C(OC(OCC)C(CC)[Se]c2ccccc2)CCC1 (centres undefined)
- TGI (CCRF-CEM leukemia): 36.2 µM
- TGI (KM20L2 colon): > 100 µM
- TGI (DMS 273 small cell lung): 29.2 µM
- TGI (DLD-1 colon): 45.4 µM
- TGI (DMS 114 small cell lung): 15.6 µM
- TGI (LXFL 529 NSCLC): 77 µM
- TGI (SNB-78 CNS): 97.4 µM
- TGI (RXF-631 renal): 32.9 µM
- TGI (XF 498 CNS): 46.8 µM
- TGI (M19-MEL melanoma): 30.8 µM
- TGI (HOP-18 NSCLC): 69.5 µM

SMILES: CCOP(=O)(O)C(Nc1ccc(N=Nc2ccccc2)cc1)c1cccc(C(Nc2ccc(N=Nc3ccccc3)cc2)P(=O)(O)OCC)c1 (centres undefined)
- TGI (CCRF-CEM leukemia): 96.7 µM

SMILES: CN1CCc2ccccc2C(C(=O)c2ccc3c(c2)OCO3)C1=O (centres undefined)
- TGI (CCRF-CEM leukemia): > 100 µM
- TGI (KM20L2 colon): > 100 µM
- TGI (DMS 273 small cell lung): > 100 µM
- TGI (DLD-1 colon): > 100 µM
- TGI (DMS 114 small cell lung): > 100 µM
- TGI (LXFL 529 NSCLC): > 100 µM
- TGI (RXF-631 renal): > 100 µM
- TGI (XF 498 CNS): > 100 µM
- TGI (M19-MEL melanoma): > 100 µM
- TGI (HOP-18 NSCLC): > 100 µM

SMILES: O=C1Cc2cn[nH]c2-c2ccccc2N1
- TGI (CCRF-CEM leukemia): 53.1 µM

SMILES: Nc1ccccc1C(=O)N=Nc1c(O)[nH]c2ccccc12
- TGI (CCRF-CEM leukemia): > 100 µM

SMILES: COC(=O)C(=O)Nc1cc2c3c(c1)Oc1cccc4c1C3(C)c1c(cccc1O2)O4
- TGI (CCRF-CEM leukemia): 8.7 µM

SMILES: Cc1nn(C(=O)c2ccncc2)c2c1C(c1ccccc1[N+](=O)[O-])SC(N)=N2 (centres undefined)
- TGI (CCRF-CEM leukemia): > 10 µM

SMILES: Cc1ccc(-c2cc(-c3ccccc3)c(C#N)c(=O)[nH]2)cc1
- TGI (CCRF-CEM leukemia): > 100 µM
- TGI (KM20L2 colon): > 100 µM
- TGI (DMS 273 small cell lung): > 100 µM
- TGI (DLD-1 colon): > 100 µM
- TGI (DMS 114 small cell lung): > 100 µM
- TGI (LXFL 529 NSCLC): > 100 µM
- TGI (SNB-78 CNS): > 100 µM
- TGI (RXF-631 renal): > 100 µM
- TGI (M19-MEL melanoma): > 100 µM
- TGI (HOP-18 NSCLC): > 100 µM

SMILES: C=C1C(=O)O[C@H]2C1C[C@H](O)[C@@]1(C)OC1CC[C@@]1(C)O[C@H]21 (some centres undefined)
- TGI (CCRF-CEM leukemia): 8.68 µM

SMILES: CC(C)(C)OC(=O)N1CCCC1C(=O)NC(c1ccccc1)c1ccccc1 (centres undefined)
- TGI (CCRF-CEM leukemia): > 100 µM

SMILES: O=C(Nc1ccccc1)OCCN=C1c2ccccc2CCc2ccccc21
- TGI (CCRF-CEM leukemia): 55.7 µM

SMILES: CC(C)OP(=O)(OC(C)C)C(C)(C)O
- TGI (CCRF-CEM leukemia): > 100 µM

SMILES: COc1cc([C@@H]2c3cc4c(cc3[C@@H](NCc3cccc(C#N)c3)C3COC(=O)[C@@H]32)OCO4)cc(OC)c1O (some centres undefined)
- TGI (CCRF-CEM leukemia): > 100 µM
- TGI (KM20L2 colon): 4.63 µM
- TGI (DMS 273 small cell lung): 5.89 µM
- TGI (DLD-1 colon): 12.7 µM
- TGI (DMS 114 small cell lung): 9.19 µM
- TGI (LXFL 529 NSCLC): > 100 µM
- TGI (RXF-631 renal): 4.64 µM
- TGI (M19-MEL melanoma): 50.3 µM
- TGI (HOP-18 NSCLC): > 100 µM

SMILES: CCCc1nc2c(n1CC)C(=O)c1ccccc1C2=O
- TGI (CCRF-CEM leukemia): > 100 µM

SMILES: CC1=CCC(C(C)(C)NC(=O)c2ccccc2)C/C1=N/O (centres undefined)
- TGI (CCRF-CEM leukemia): > 100 µM

SMILES: O=[N+]([O-])c1cccc2nccc(NCCN3CCOCC3)c12
- TGI (CCRF-CEM leukemia): > 64.8 µM

SMILES: C=C1C2=C(CCCC2)C(=O)OC12CCCCC2
- TGI (CCRF-CEM leukemia): > 100 µM
- TGI (KM20L2 colon): > 100 µM
- TGI (DMS 273 small cell lung): > 100 µM
- TGI (DLD-1 colon): > 100 µM
- TGI (DMS 114 small cell lung): > 100 µM
- TGI (LXFL 529 NSCLC): > 100 µM
- TGI (RXF-631 renal): > 100 µM
- TGI (XF 498 CNS): > 100 µM
- TGI (M19-MEL melanoma): > 100 µM
- TGI (HOP-18 NSCLC): > 100 µM

SMILES: C[C@@H]1CC[C@H]2[C@H](C)C(OC3O[C@@H]4O[C@@]5(C)CC[C@H]6[C@H](C)CC[C@@H]([C@@H]3C)[C@@]46O5)O[C@@H]3O[C@@]4(C)CC[C@@H]1[C@]32O4 (some centres undefined)
- TGI (CCRF-CEM leukemia): > 100 µM

SMILES: OCC(O)C(O)C(O)c1nn(-c2ccc(F)cc2)c2nc3cc(Cl)c(Cl)cc3nc12 (centres undefined)
- TGI (CCRF-CEM leukemia): 40 µM
- TGI (KM20L2 colon): > 100 µM
- TGI (DMS 273 small cell lung): 48.2 µM
- TGI (DLD-1 colon): > 100 µM
- TGI (DMS 114 small cell lung): 71.4 µM
- TGI (LXFL 529 NSCLC): > 100 µM
- TGI (SNB-78 CNS): 27.4 µM
- TGI (XF 498 CNS): 24.6 µM
- TGI (M19-MEL melanoma): 57.8 µM
- TGI (HOP-18 NSCLC): 52.7 µM

SMILES: Cn1nnc2c3c(N(CCO)CCO)ccnc3ccc21
- TGI (CCRF-CEM leukemia): > 100 µM

SMILES: Cc1ccc(C(=O)Oc2ccccc2)cc1N=NN(C)C
- TGI (CCRF-CEM leukemia): > 100 µM
- TGI (KM20L2 colon): > 100 µM
- TGI (DMS 273 small cell lung): > 100 µM
- TGI (DLD-1 colon): > 100 µM
- TGI (LXFL 529 NSCLC): > 100 µM
- TGI (SNB-78 CNS): > 100 µM
- TGI (M19-MEL melanoma): > 100 µM

SMILES: COc1ccc(/C=C\c2cc(OC)c(OC)c(OC)c2)cc1
- TGI (CCRF-CEM leukemia): > 100 µM
- TGI (DMS 273 small cell lung): > 100 µM
- TGI (DLD-1 colon): > 100 µM
- TGI (DMS 114 small cell lung): > 100 µM
- TGI (LXFL 529 NSCLC): > 100 µM
- TGI (RXF-631 renal): > 100 µM
- TGI (M19-MEL melanoma): > 100 µM

SMILES: Cc1cc(C)nc(NS(=O)(=O)c2ccc(Nc3c4ccccc4nc4c(C(=O)NCCN(C)C)cccc34)cc2)n1
- TGI (CCRF-CEM leukemia): 22.6 µM
- TGI (KM20L2 colon): 20.2 µM
- TGI (DMS 273 small cell lung): 11.2 µM
- TGI (DLD-1 colon): 21.7 µM
- TGI (DMS 114 small cell lung): 17.5 µM
- TGI (LXFL 529 NSCLC): 20 µM
- TGI (SNB-78 CNS): 45.2 µM
- TGI (RXF-631 renal): 18 µM
- TGI (XF 498 CNS): 26.8 µM
- TGI (M19-MEL melanoma): 14.9 µM

SMILES: COC(=O)c1ccc2c(c1)CC1(C2)Cc2ccccc2C1=O (centres undefined)
- TGI (CCRF-CEM leukemia): 56.5 µM

SMILES: O=C(NCCNCCNC(=O)c1cc(-c2ccccc2)nc2ccccc12)c1cc(-c2ccccc2)nc2ccccc12
- TGI (CCRF-CEM leukemia): > 100 µM

SMILES: COC(=O)[C@@](NC(=O)OCc1ccccc1)([C@H](C)O)C(F)(F)F
- TGI (CCRF-CEM leukemia): > 100 µM

SMILES: C1CCCN(NC2=NCCO2)CC1
- TGI (CCRF-CEM leukemia): > 100 µM

SMILES: CCCNCCCCC(NC(C)=O)C(=O)NCc1ccccc1 (centres undefined)
- TGI (CCRF-CEM leukemia): > 100 µM
- TGI (KM20L2 colon): > 100 µM
- TGI (DMS 273 small cell lung): > 100 µM
- TGI (DLD-1 colon): > 100 µM
- TGI (DMS 114 small cell lung): > 100 µM
- TGI (LXFL 529 NSCLC): > 100 µM
- TGI (SNB-78 CNS): > 100 µM
- TGI (RXF-631 renal): > 100 µM
- TGI (XF 498 CNS): > 100 µM
- TGI (M19-MEL melanoma): > 100 µM

SMILES: COc1cc(C2c3cc4c(cc3C(=O)C3CCC(=O)N32)OCO4)cc(OC)c1O (centres undefined)
- TGI (CCRF-CEM leukemia): > 50 µM

SMILES: CC(=O)/C(=C\I)c1ccccc1
- TGI (CCRF-CEM leukemia): 5.19 µM

SMILES: CN(N=O)c1nc2c(C(N)=O)ncn2s1
- TGI (CCRF-CEM leukemia): > 100 µM

SMILES: Cc1ccc2nc(NS(=O)(=O)c3cc(C)c(Cl)cc3S)[nH]c2c1
- TGI (CCRF-CEM leukemia): 69.8 µM
